In BindingDB's records for patent WO2024074497 (Forx Therapeutics, 2024):

Biological target: T1, Poly(ADP-ribose) glycohydrolase [448-976,L473S,N479S,S802A,R811K,M841I,S858P,I916T,T924D,D927K,C963S,A967T] (UniProt Q86W56, A967T/C963S/D927K/I916T/L473S/M841I/N479S/R811K/S802A/S858P/T924D)
T1 construct: 448-976
Experiment: PARG enzymatic IC50 assay
Protocol: PARG enzyme as incubated with compound or vehicle (DMSO) for 15 minutes or 2 hours in a 384 well plate. After adding the PARG substrate ADP-ribose-pNP, the plate was read for absorbance intensity at 405 nm. The vehicle (DMSO) with high absorbance intensity represents no inhibition of enzymatic reaction while the low control (no enzyme) with low absorbance intensity represents full inhibition of enzymatic reaction.

T1 sequence (Q86W56 448-976 L473S/N479S/S802A/R811K/M841I/S858P/I916T/T924D/D927K/C963S/A967T): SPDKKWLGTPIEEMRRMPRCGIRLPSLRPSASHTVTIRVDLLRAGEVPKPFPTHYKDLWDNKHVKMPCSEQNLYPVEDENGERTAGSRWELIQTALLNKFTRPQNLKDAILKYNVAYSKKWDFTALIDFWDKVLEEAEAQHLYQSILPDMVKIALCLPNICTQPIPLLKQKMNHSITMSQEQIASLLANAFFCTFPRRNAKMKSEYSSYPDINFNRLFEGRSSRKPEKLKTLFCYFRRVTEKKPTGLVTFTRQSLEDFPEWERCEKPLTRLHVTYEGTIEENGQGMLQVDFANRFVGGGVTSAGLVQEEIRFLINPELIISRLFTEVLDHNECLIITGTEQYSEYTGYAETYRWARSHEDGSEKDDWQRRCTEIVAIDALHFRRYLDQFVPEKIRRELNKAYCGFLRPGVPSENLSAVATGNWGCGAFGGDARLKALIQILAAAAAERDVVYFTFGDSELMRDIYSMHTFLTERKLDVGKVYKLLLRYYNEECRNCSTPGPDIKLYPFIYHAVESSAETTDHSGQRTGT

IC50: 110 nM
Structure (SMILES): C[C@H]1CN(c2cc(S(=O)(=O)NC3(C)CC3)cn3c(-c4nnc(C(F)F)s4)ncc23)C[C@H](C)N1 [WO2024074497, Example 1]
